Experimental data published in PMC5018819 (Scientific Reports, 2016).
Like-named read-outs stand apart in the source and are kept apart here.

Tests used:
P. falciparum 3D7 = test: ES-MS and ES-MS-MS lipidomic analysis of treated parasites; format: cell-based, Plasmodium falciparum; conditions: EC90 for 3 h; for effect on level of PC species: parents of 184 m/z spectra; for effect on endogenous PE species (in words): quantitative lipidomic analysis
Description: After washing, P. falciparum trophozoites were cultured for 18h without inhibitors, collected, treated with saponin to release the parasites from the red blood cells, and washed twice with PBS prior to Bligh & Dyer lipid extraction. Briefly, 5 × 10^8 parasite cells were dissolved in 375 μl 1:2 (v/v) chloroform:methanol and vigorously vortexed for 15 min. 125 μl of chloroform were added and 500 pmols of 1,2-dimyristoyl-sn-glycero-3-phosphocholine and 1,2-dipalmitoyl-sn-glycero-3-phosphoethanolamine were included in each sample as internal controls. 125 μl of water were added to the sample, vortexed and centrifuged at ×1000 g (RT) for 5 min to make the sample biphasic. Lower organic phase was collected and upper (aqueous) phase was re-extracted twice with 125 μls of chloroform. Lipid extracts were pooled, dried under nitrogen and stored at 4 °C for ESI-MS/MS analysis.
Lipid extracts, were dissolved in 15 μl of choloroform:methanol (1:2) and 15 μl of acetonitrile:iso-propanol:water (6:7:2) and analysed with a Absceix 4000 QTrap, a triple quadrupole mass spectrometer equipped with a nanoelectrospray source. Samples were delivered using a Nanomate interface in direct infusion mode (~125 nl/min). The lipid extracts were analysed in both positive and negative ion modes using a capillary voltage of 1.25 kV. MS/MS scanning (daughter, precursor and neutral loss scans) were performed using nitrogen as the collision gas with collision energies between 35–90 V. Each spectrum encompasses at least 50 repetitive scans. Tandem mass spectra (MS/MS) were obtained with collision energies between 35–90 V. Assignment of phospholipid and neutral lipid species is based upon a combination of survey, daughter, precursor and neutral loss scans, as well previous assignments. The identity of phospholipid peaks was verified using the LIPID MAPS: Nature Lipidomics Gateway (www.lipidmaps.org).

HsCKα1 [1] = target: T1, HsCKα1 (Homo sapiens, UniProt P35790); test: Ki determination and mode of inhibition; format: biochemical; conditions: for α, HsCKα1, ATP / α, HsCKα1, Cho: alpha factor of mixed inhibition
T1 construct: made in house
Description: (§1) A continuous spectrophotometric 96-well plate assay was established for CK and EK activity based on an assay described. […] The reaction was initiated by addition of enzyme or substrate, as appropriate, and the rate of reaction was monitored by following the decrease in absorbance at 341 nm for 10 min at room temperature using a Thermo Multiska spectrophotometer. Experiments were carried out to ensure that coupling enzymes were not rate-limiting under any of the conditions used and control experiments lacking substrates and/or enzyme were carried out to correct for any background rate.
(§2) Activity was measured at 3–4 different concentrations of inhibitor and a fixed concentration of one substrate (as specified in the standard assay) while the second substrate was varied. GraphPad Prism 6 (GraphPad Software Inc.) was used to fit data to different inhibition models with the best fit being determined by Aike’s Informative Criteria. Kis were estimated from the best-fit model and results were reinforced by linear re-plots of the data (Lineweaver Burke, Dixon, s/v against I)[38].

PfCK [2] = target: T2, PfCK (Plasmodium falciparum, UniProt Q8IM71); test: Ki determination and mode of inhibition; format: biochemical
T2 construct: made in house
T2 sequence (Q8IM71 1-440): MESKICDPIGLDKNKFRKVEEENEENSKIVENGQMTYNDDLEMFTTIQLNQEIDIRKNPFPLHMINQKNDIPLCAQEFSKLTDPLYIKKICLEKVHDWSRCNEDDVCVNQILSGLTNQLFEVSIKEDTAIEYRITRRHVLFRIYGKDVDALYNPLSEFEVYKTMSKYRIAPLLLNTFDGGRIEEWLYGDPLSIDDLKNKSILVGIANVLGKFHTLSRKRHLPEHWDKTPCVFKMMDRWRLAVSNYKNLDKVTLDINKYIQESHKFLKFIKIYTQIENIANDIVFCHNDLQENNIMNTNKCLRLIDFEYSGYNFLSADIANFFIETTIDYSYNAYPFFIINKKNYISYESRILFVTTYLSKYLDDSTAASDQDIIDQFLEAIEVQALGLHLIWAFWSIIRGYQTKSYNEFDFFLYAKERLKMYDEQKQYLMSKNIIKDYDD
Description: as §1, §2

HsCKα1 [3] = target: T1, HsCKα1; test: Kd by tryptophan fluorescence quenching; format: binding; conditions: 25 °C, enzyme 1 μM
Description: (§3) Compounds BR23 and BR25 were prepared in 100% DMSO. The Kds for compounds BR23 and BR25 against HsCKα1 and PfCK were measured by monitoring the quenching of tryptophan fluorescence. All experiments were carried out in a Cary Eclipse spectrofluorometer at 25 °C with the enzymes at 1 μM, and concentrations of compounds varying from 0.05 to 8 μM for HsCKα1, and from 0.05 to 16 μM for PfCK in 25 mM Tris, 150 mM NaCl, pH 7.5. Fluorescence emission spectra were recorded in the 300–400 nm range with an excitation wavelength of 280 nm, with slit width of 5 nm. Controls were determined by incubating the enzymes with equivalent amounts of DMSO. As indicated previously, data analysis was performed in Prism (GraphPad software) considering a model with a single binding site (Eq. 1), where F0 is the intrinsic fluorescence of the enzyme in the absence of quencher (Q), F1 is the observed fluorescence at a given quencher concentration, fa is the fractional degree of fluorescence, and Kd is the dissociation constant.

PfCK [4] = target: T2, PfCK; test: Kd by tryptophan fluorescence quenching; format: binding; conditions: for Kd: tryptophan fluorescence quenching, 25 °C, enzyme 1 μM
Description: as §3

P. falciparum = tested on: P. falciparum; parameters: method as in PMID 25089811; conditions: blood stages of the parasite, in vitro; read-out: IC50 against P. falciparum; cited from earlier work
[5] = ATP as variable substrate, read-out: Ki, HsCKα1, ATP
[6] = read-out: Ki, HsCKα1, Cho, Cho as variable substrate
[7] = read-out: Ki, HsCKα1, with respect to Cho, mixed inhibition, approximate value
[8] = ATP as variable substrate, read-out: Ki, PfCK, ATP
[9] = Etn as variable substrate, read-out: Ki, PfCK, Etn
[10] = alpha factor of mixed inhibition, Cho as variable substrate
[11] = competitive inhibition, approximate value, read-out: Ki, PfCK, with respect to Etn
[12] = read-out: Ki, PfCK, Cho, Cho as variable substrate
[13] = read-out: Ki, PfCK, against Cho, mixed inhibition, approximate value

T1 sequence (P35790 whole entry): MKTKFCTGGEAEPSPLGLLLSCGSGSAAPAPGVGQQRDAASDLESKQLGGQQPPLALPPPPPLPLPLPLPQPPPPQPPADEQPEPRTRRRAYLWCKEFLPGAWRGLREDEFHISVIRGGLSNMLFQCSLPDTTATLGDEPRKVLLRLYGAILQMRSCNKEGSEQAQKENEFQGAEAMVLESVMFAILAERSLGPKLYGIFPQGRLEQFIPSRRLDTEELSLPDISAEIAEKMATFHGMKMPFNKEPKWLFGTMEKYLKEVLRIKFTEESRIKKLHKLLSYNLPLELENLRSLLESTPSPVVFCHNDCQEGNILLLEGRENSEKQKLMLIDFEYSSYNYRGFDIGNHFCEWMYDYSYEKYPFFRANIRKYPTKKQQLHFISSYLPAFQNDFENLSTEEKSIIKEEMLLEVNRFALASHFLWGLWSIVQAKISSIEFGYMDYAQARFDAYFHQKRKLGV

| SMILES | effect on level of PC species (P. falciparum 3D7) | effect on endogenous PE species (in words) (P. falciparum 3D7) | mode of inhibition, HsCKα1, ATP (HsCKα1 [1]; ATP as variable substrate) | Ki (HsCKα1 [1]; [5]) | mode of inhibition, HsCKα1, Cho (HsCKα1 [1]; Cho as variable substrate) | α, HsCKα1, ATP (HsCKα1 [1]; ATP as variable substrate) | α, HsCKα1, Cho (HsCKα1 [1]; Cho as variable substrate) | Ki (HsCKα1 [1]; [6]) | Ki (HsCKα1 [1]; [7]) | mode of inhibition, PfCK, ATP (PfCK [2]; ATP as variable substrate) | Ki (PfCK [2]; [8]) | mode of inhibition, PfCK, Cho (PfCK [2]; Cho as variable substrate) | mode of inhibition, PfCK, Etn (PfCK [2]; Etn as variable substrate) | Ki (PfCK [2]; [9]) | α, PfCK, Cho (PfCK [2]; [10]) | Ki (PfCK [2]; [11]) | Ki (PfCK [2]; [12]) | Ki (PfCK [2]; [13]) | Kd (HsCKα1 [3]) | Kd (PfCK [4]) | also measured |
| --- | --- | --- | --- | --- | --- | --- | --- | --- | --- | --- | --- | --- | --- | --- | --- | --- | --- | --- | --- | --- | --- |
| CN(C)c1cc[n+](Cc2ccc(-c3ccc(C[n+]4ccc(N5CCCC5)cc4)cc3)cc2)cc1.[Br-].[Br-] [BR23] | do not affect | significant reduction | Mixed | 3.7 µM | Mixed | 0.73 | 59 | 0.114 µM | ~0.1 µM | Competitive | 116 µM | Mixed | Competitive | 4.1 µM | 3.915 | ~4 µM | 38.2 µM | ~35 µM | 0.521 ± 0.2 µM | 1.4 µM | reduction of endogenous PE species (P. falciparum 3D7; ES-MS-MS parents of 196 m/z, internal PE standard): > 90%; Ki (HsCKα1 [1]; mixed inhibition, approximate value, read-out: Ki, HsCKα1, with respect to ATP): ~4 µM; IC50 (P. falciparum): 0.003 µM |
| CN(C)c1cc[n+](Cc2ccc(CCCCc3ccc(C[n+]4ccc(N5CCCC5)cc4)cc3)cc2)cc1.[Br-].[Br-] [BR25] | do not affect | almost complete loss | Mixed | 4.1 µM | Mixed | 0.49 | 139 | 0.1 µM | ~0.1 µM | Mixed | 65.5 µM | Mixed | Competitive | 4 µM | 2.025 | ~4 µM | 31.9 µM | ~35 µM | 0.352 ± 0.02 µM | 0.415 ± 0.081 µM | α, PfCK, ATP (PfCK [2]; alpha factor of mixed inhibition, ATP as variable substrate): 2.37; affinity for PfCK relative to BR23 (PfCK [4]; ratio of Kds): 3 fold; IC50 (P. falciparum): 0.002 µM |
